Assay results as given in patent US6833380B2, “Compounds that modulate PPAR activity and methods of preparation” (Warner-Lambert Company, LLC, priority 2002, dated 2004).

How the values were obtained:
hPPARβ chimeric receptor = target: T1, hPPARβ chimeric receptor (Homo sapiens, UniProt Q03181); test: Transient transfections assay using the HepG2 hepatoma cell line (Gal4-PPAR chimeric receptor, luciferase reporter), hPPARβ; type: cell-based; details: HepG2 cells transiently transfected, 24 hours incubation, read-out: Hep G2-hβ EC50
T1 construct: "expression plasmids encoding hPPARα, hPPARβ or mPPARγ chimeric receptors"
T1 sequence (Q03181 171-441 limits assumed): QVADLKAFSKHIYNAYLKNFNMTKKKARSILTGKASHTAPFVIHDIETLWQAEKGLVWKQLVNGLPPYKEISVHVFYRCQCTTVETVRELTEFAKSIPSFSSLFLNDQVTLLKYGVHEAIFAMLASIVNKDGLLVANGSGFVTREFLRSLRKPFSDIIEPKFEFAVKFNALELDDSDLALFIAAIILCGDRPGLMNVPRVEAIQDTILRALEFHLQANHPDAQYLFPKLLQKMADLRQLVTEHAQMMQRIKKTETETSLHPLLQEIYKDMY
Protocol: (§1) 1. Test A. Transient Transfections Assay using the HepG2 Hepatoma Cell Line.
(§2) HepG2 cells were transiently transfected with an expression plasmids encoding hPPARα, hPPARβ or mPPARγ chimeric receptors and a reporter containing the yeast upstream activating sequence (UAS) upstream of the viral E1B promoter controlling a luciferase reporter gene. In addition, the plasmid pRSVβ-gal was used to control for transfection efficiency. HepG2 cells were grown in DMEM supplemented with 10% FBS and […] non-essential amino acid. On the first day, cells were split into 100 mm dishes at 2.5×10^6/dish and incubated overnight at 37° C./5% CO2. On the second day the cells were transiently transfected with plasmid DNA encoding a chimeric receptor, the luciferase reporter gene; and β-gal. For each 100 mm dish, 15 μg of lucifease reporter (PG5E1b) DNA, 15 μg of Gal4-PPAR chimeric receptor DNA, and 1.5 μg of β-gal plasmid DNA were mixed with 1.4 ml of opti-MEM in the tube. 28 μl of LipoFectamine-2000 reagent was added to 1.4 ml of opti-MEM in the tube, and incubate for 5 min at RT. The diluted Lipofectamine-2000 reagent was combined with the DNA mixture, and incubate for 20 min at RT. After fresh medium was added to each 100 mm dish of cells, 2.8 ml of Lipofectamine2000-DNA mixture was added dropwise to the 100 mm dish containing 14 ml of medium, and incubate 37° C. overnight. On day three cells were trypsinized off the 100 mm dishes and re-plated on 96 well plates. Cells were plated at 2.5×10^4 cells per well in 150 μl of media and 50 μl of compound diluted by media was added. The test compound added were in the range from 50 μM to 50 pM. After addition of compounds, the plates were incubated at 37° C. for 24 hours. Subsequently cells were washed with once with 100 μl of PBS, lysed, and processed for measuring luciferase and β-gal activity using Dual-Light luciferase kit from Tropix®, according to the manufacturer's recommendations, on an EG&G Bethold MicroLumat LB96P luminometer. EC50 values were obtained using the GraphPad Prism™ program. […] Accordingly, the compounds of the present invention should find considerable therapeutic applications for hypercholesterolemia and hyperlipidemia.

hPPARα chimeric receptor = target: T2, hPPARα chimeric receptor (Homo sapiens, UniProt Q07869); test: Transient transfections assay using the HepG2 hepatoma cell line (Gal4-PPAR chimeric receptor, luciferase reporter), hPPARα; type: cell-based; details: HepG2 cells transiently transfected, 24 hours incubation, read-out: Hep G2-hα EC50
T2 construct: "expression plasmids encoding hPPARα, hPPARβ or mPPARγ chimeric receptors"
T2 sequence (Q07869 200-468 limits assumed): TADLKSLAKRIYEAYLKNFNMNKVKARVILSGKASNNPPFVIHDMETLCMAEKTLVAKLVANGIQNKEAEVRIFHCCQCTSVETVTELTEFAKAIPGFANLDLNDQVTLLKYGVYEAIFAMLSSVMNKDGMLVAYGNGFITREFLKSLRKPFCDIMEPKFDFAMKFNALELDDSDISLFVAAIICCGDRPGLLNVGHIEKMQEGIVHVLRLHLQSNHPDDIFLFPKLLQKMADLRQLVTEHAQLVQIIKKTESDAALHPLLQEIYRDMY
Protocol: as §1, §2

SMILES | EC50 (hPPARβ chimeric receptor) [µM] | EC50 (hPPARα chimeric receptor) [µM] | melting point [°C]
Cc1nc(-c2ccc(C(F)(F)F)cc2)sc1CSc1ccc(OCC(=O)O)c2c1OCCC2 [Example 1, {8-[4-Methyl-2-(4-trifluoromethyl-phenyl)-thiazol-5-ylmethylsulfanyl]-chroman-5-yloxy}-acetic acid] | 0.187 |  | 
Cc1nc(-c2ccc(C(F)(F)F)cc2)sc1CSc1ccc(OCC(=O)O)c2c1CCCC2 [Example 2, {4-[4-Methyl-2-(4-trifluoromethyl-phenyl)-thiazol-5-ylmethylsulfanyl]-5,6,7,8-tetrahydro-naphthalen-1-yloxy}-acetic acid] | 0.052 | 2.97 | 166 to 167
Cc1nc(-c2ccc(C(F)(F)F)cc2)sc1CSc1ccc(OCC(=O)O)c2ccccc12 [Example 3, {4-[4-Methyl-2-(4-trifluoromethyl-phenyl)-thiazol-5-ylmethylsulfanyl]-naphthalen-1-yloxy}-acetic acid] | 0.076 | 3.58 | 181 to 183
Cc1cc(SCc2sc(-c3ccc(C(F)(F)F)cc3)nc2C)c2c(c1OCC(=O)O)CCO2 [Example 5, 2-[5-methyl-7-({4-methyl-2-[4-(trifluoromethyl)phenyl](1,3-thiazol-5-yl)}methylthio)-2,3-dihydrobenzo[b]furan-4-yloxy]acetic acid] | 0.0008 | 0.052 | 157 to 158

Continued, values first:

EC50 (hPPARβ chimeric receptor) [µM] | EC50 (hPPARα chimeric receptor) [µM] | melting point [°C] | SMILES
0.045 | 1.76 | 203.5 to 205.5 | Cc1cc(SCc2sc(-c3ccc(C(F)(F)F)cc3)nc2C)c2c(c1OCC(=O)O)CCCO2 [Example 4, 2-[6-methyl-8-({4-methyl-2-[4-(trifluoromethyl)phenyl](1,3-thiazol-5-yl)}methylthio)chroman-5-yloxy]acetic acid]
0.133 | 0.191 | 184 | Cc1cc(SCc2sc(-c3ccc(C(F)(F)F)cc3)nc2C)c2c(c1OCC(=O)O)CCC2 [Example 6, {5-Methyl-7-[4-methyl-2-(4-trifluoromethyl-phenyl)-thiazol-5-ylmethylsulfanyl]-indan-4-yloxy}-acetic acid]
